Assay results as given in US20100056596A1, “RESISTANCE-REPELLENT RETROVIRAL PROTEASE INHIBITORS” (Sequoia Pharmaceuticals, priority 2004, published 2010).
Read-outs that look alike come from different tables or passages of the source.

Columns and labels:
wild type HIV-1 protease = molecular target: T1, wild type HIV-1 protease (Human immunodeficiency virus type 1 group M subtype B, UniProt P04585); experiment: Ki against wild type (WT) HIV-1 protease; type: biochemical
T1 construct: over 45 of the 99 amino acids of the HIV protease monomer

HIV-1 protease Mutant 8 = HIV-1 protease Mutant 8 (Human immunodeficiency virus type 1, UniProt P04585); experiment: Ki against HIV-1 protease Mutant 8; type: biochemical
HIV-1 protease Mutant 9 = HIV-1 protease Mutant 9 (Human immunodeficiency virus type 1, UniProt P04585); experiment: Ki against HIV-1 protease Mutant 9; type: biochemical
HIV-1 isolates, WT = experiment: In vitro drug sensitivity of HIV-1 laboratory isolates, WT; type: cell-based
Description: (§1) In Vitro Drug Sensitivity of HIV-1 Laboratory Isolates to PIs
(§2) The sensitivities of HIV-1 isolates against compounds of the invention were determined as previously described with minor modifications (Shiraska et al., Proc. Natl. Acad. Sci. USA, 92, 2398-2402 (1995)).

HIV-1 isolates, Mutant 8 = experiment: In vitro drug sensitivity of HIV-1 laboratory isolates, Mutant 8; type: cell-based
Description: as §1, §2

HIV-1 isolates, Mutant 9 = experiment: In vitro drug sensitivity of HIV-1 laboratory isolates, Mutant 9; type: cell-based
Description: as §1, §2

[1] = Human immunodeficiency virus 1, read-out: IC50 Mutant 8
[2] = Human immunodeficiency virus 1, read-out: IC50 Mutant 9
[3] = Mutant 8, read-out: IC50 Mutant 8
[4] = Mutant 9, read-out: IC50 Mutant 9
[5] = Human immunodeficiency virus 1, HIV-1 isolate WT

Compound | Ki (wild type HIV-1 protease; WT) | Ki (HIV-1 protease Mutant 8; Mutant 8) | Ki (HIV-1 protease Mutant 9; Mutant 9) | IC50 (HIV-1 isolates, WT; Human immunodeficiency virus 1) | IC50 (HIV-1 isolates, Mutant 8; [1]) | IC50 (HIV-1 isolates, Mutant 9; [2]) | IC50 (HIV-1 isolates, WT; WT) | IC50 (HIV-1 isolates, Mutant 8; [3]) | IC50 (HIV-1 isolates, Mutant 9; [4]) | Ki (wild type HIV-1 protease; wild type HIV-1 protease) | Ki (HIV-1 protease Mutant 8; HIV-1 protease Mutant 8) | Ki (HIV-1 protease Mutant 9; HIV-1 protease Mutant 9) | IC50 (HIV-1 isolates, WT; [5])
CCOC(=O)NCc1cc2cc(S(=O)(=O)N(CC(C)C)CC(O)C(Cc3ccccc3)NC(=O)OC3COC4OCCC34)ccc2o1 (stereo not drawn) [Compound 121] | < 0.1 nM | < 0.3 nM | 1.6 nM | 8 nM | 21 nM | > 400 nM | – | – | – | – | – | – | –
CC(=O)OCc1coc2ccc(S(=O)(=O)N(CC(C)C)CC(O)C(Cc3ccccc3)NC(=O)OC3COC4OCCC34)cc12 (stereo not drawn) [Compound 122] | < 0.1 nM | < 0.3 nM | 0.27 nM | 5.9 nM | 11 nM | 110 nM | – | – | – | – | – | – | –
COCc1coc2ccc(S(=O)(=O)N(CC(C)C)CC(O)C(Cc3ccccc3)NC(=O)OC3COC4OCCC34)cc12 (stereo not drawn) [Compound 123] | 0.13 nM | < 0.3 nM | 0.22 nM | 4 nM | 19 nM | 240 nM | – | – | – | – | – | – | –
CC(C)CN(CC(O)C(Cc1ccccc1)NC(=O)OC1COC2OCCC12)S(=O)(=O)c1ccc2occ(CO)c2c1 (stereo not drawn) [Compound 124] | < 0.1 nM | < 0.3 nM | 0.26 nM | 8.7 nM | 12 nM | 130 nM | – | – | – | – | – | – | –
CC(C)CN(C[C@@H](O)[C@H](Cc1ccccc1)NC(=O)OC1COC2OCCC12)S(=O)(=O)c1ccc2occ(CNC(=O)c3ccco3)c2c1 (stereo partly drawn) [Compound 125] | < 0.1 nM | < 0.3 nM | < 0.1 nM | – | – | – | 5 nM | 9 nM | 31 nM | – | – | – | –
CCOC(=O)N(CCOC)Cc1coc2ccc(S(=O)(=O)N(CC(C)C)C[C@@H](O)[C@H](Cc3ccccc3)NC(=O)OC3COC4OCCC34)cc12 (stereo partly drawn) [Compound 126] | < 0.1 nM | < 0.3 nM | 0.92 nM | – | – | – | 4 nM | 60 nM | 250 nM | – | – | – | –
CC(C)CN(CC(O)C(Cc1ccccc1)NC(=O)OC1COC2OCCC12)S(=O)(=O)c1ccc2onc(CN)c2c1 (stereo not drawn) [Compound 203] | – | – | – | – | 70 nM | 120 nM | – | – | – | < 0.1 nM | < 0.3 nM | 0.71 nM | 22 nM
CC(C)CN(CC(O)C(Cc1ccccc1)NC(=O)OC1COC2OCCC12)S(=O)(=O)c1ccc2onc(CNS(=O)(=O)C(C)C)c2c1 (stereo not drawn) [Compound 204] | – | – | – | – | 31 nM | 83 nM | – | – | – | < 0.1 nM | < 0.3 nM | 0.14 nM | 6.5 nM
CC(=O)OCc1noc2ccc(S(=O)(=O)N(CC(C)C)CC(O)C(Cc3ccccc3)NC(=O)OC3COC4OCCC34)cc12 (stereo not drawn) [Compound 205] | – | – | – | – | 23 nM | 68 nM | – | – | – | < 0.1 nM | < 0.3 nM | 0.23 nM | 10 nM
CCOC(=O)C(C)NCc1noc2ccc(S(=O)(=O)N(CC(C)C)CC(O)C(Cc3ccccc3)NC(=O)OC3COC4OCCC34)cc12 (stereo not drawn) [Compound 206] | – | – | – | – | 30 nM | 160 nM | – | – | – | < 0.1 nM | < 0.3 nM | 0.33 nM | 5 nM
CC(C)CN(CC(O)C(Cc1ccccc1)NC(=O)OC1COC2OCCC12)S(=O)(=O)c1ccc2onc(CNS(C)(=O)=O)c2c1 (stereo not drawn) [Compound 207] | – | – | – | – | 28 nM | 54 nM | – | – | – | < 0.1 nM | < 0.3 nM | 0.34 nM | 22 nM
CCCC[S+]([O-])Cc1noc2ccc(S(=O)(=O)N(CC(C)C)CC(O)C(Cc3ccccc3)NC(=O)OC3COC4OCCC34)cc12 (stereo not drawn) [Compound 208] | – | – | – | – | 36 nM | 60 nM | – | – | – | < 0.1 nM | < 0.3 nM | < 0.1 nM | 3.9 nM
CC(C)CN(CC(O)C(Cc1ccccc1)NC(=O)OC1COC2OCCC12)S(=O)(=O)c1ccc2onc(CSC(C)C)c2c1 (stereo not drawn) [Compound 209] | – | – | – | – | 50 nM | 210 nM | – | – | – | < 0.1 nM | < 0.3 nM | 2.3 nM | 3.5 nM
CC(C)CN(CC(O)C(Cc1ccccc1)NC(=O)OC1COC2OCCC12)S(=O)(=O)c1ccc2onc(CN(C)S(C)(=O)=O)c2c1 (stereo not drawn) [Compound 210] | – | – | – | – | 51 nM | 300 nM | – | – | – | < 0.1 nM | < 0.3 nM | 1.3 nM | 3 nM
Cc1ccc(S(=O)(=O)N(C)Cc2noc3ccc(S(=O)(=O)N(CC(C)C)CC(O)C(Cc4ccccc4)NC(=O)OC4COC5OCCC45)cc23)cc1 (stereo not drawn) [Compound 211] | – | – | – | – | 51 nM | 300 nM | – | – | – | < 0.1 nM | < 0.3 nM | 1.7 nM | 2.1 nM
CC(C)CN(CC(O)C(Cc1ccccc1)NC(=O)OC1COC2OCCC12)S(=O)(=O)c1ccc2onc(CNC(=O)OC(C)C)c2c1 (stereo not drawn) [Compound 212] | – | – | – | – | 30 nM | > 400 nM | – | – | – | < 0.1 nM | < 0.3 nM | 0.34 nM | 5 nM

Compound | Ki (wild type HIV-1 protease; WT) | Ki (HIV-1 protease Mutant 8; Mutant 8) | Ki (HIV-1 protease Mutant 9; Mutant 9) | IC50 (HIV-1 isolates, WT; Human immunodeficiency virus 1) | IC50 (HIV-1 isolates, Mutant 8; [1]) | IC50 (HIV-1 isolates, Mutant 9; [2]) | IC50 (HIV-1 isolates, WT; WT) | IC50 (HIV-1 isolates, Mutant 8; [3]) | IC50 (HIV-1 isolates, Mutant 9; [4]) | Ki (wild type HIV-1 protease; wild type HIV-1 protease) | Ki (HIV-1 protease Mutant 8; HIV-1 protease Mutant 8) | Ki (HIV-1 protease Mutant 9; HIV-1 protease Mutant 9) | IC50 (HIV-1 isolates, WT; [5])
CC(C)CN(CC(O)C(Cc1ccccc1)NC(=O)OC1COC2OCCC12)S(=O)(=O)c1ccc2onc(CO)c2c1 (stereo not drawn) [Compound 213] | – | – | – | – | 30 nM | 55 nM | – | – | – | < 0.1 nM | < 0.3 nM | 0.15 nM | 7 nM
CC(=O)NCc1noc2ccc(S(=O)(=O)N(CC(C)C)CC(O)C(Cc3ccccc3)NC(=O)OC3COC4OCCC34)cc12 (stereo not drawn) [Compound 214] | – | – | – | – | 28 nM | 31 nM | – | – | – | < 0.1 nM | < 0.3 nM | < 0.1 nM | 42 nM
CC(C)CN(CC(O)C(Cc1ccccc1)NC(=O)OC1COC2OCCC12)S(=O)(=O)c1ccc2onc(COC(=O)C(C)C)c2c1 (stereo not drawn) [Compound 215] | – | – | – | – | 15 nM | 55 nM | – | – | – | < 0.1 nM | < 0.3 nM | 0.75 nM | 11 nM
CC(C)CN(CC(O)C(Cc1ccccc1)NC(=O)OC1COC2OCCC12)S(=O)(=O)c1ccc2onc(Cn3ccnc3)c2c1 (stereo not drawn) [Compound 216] | – | – | – | – | 32 nM | 250 nM | – | – | – | < 0.1 nM | < 0.3 nM | 1.7 nM | 20 nM
CCOC(=O)NCc1noc2ccc(S(=O)(=O)N(CC(C)C)CC(O)C(Cc3ccccc3)NC(=O)OC3COC4OCCC34)cc12 (stereo not drawn) [Compound 217] | – | – | – | – | 30 nM | 20 nM | – | – | – | < 0.1 nM | < 0.3 nM | < 0.1 nM | 2.3 nM
CC(C)CN(CC(O)C(Cc1ccccc1)NC(=O)OC1COC2OCCC12)S(=O)(=O)c1ccc2onc(COC(=O)C(C)(C)C)c2c1 (stereo not drawn) [Compound 218] | – | – | – | – | 18 nM | 80 nM | – | – | – | < 0.1 nM | < 0.3 nM | 2 nM | 11 nM
COCCNCc1noc2ccc(S(=O)(=O)N(CC(C)C)CC(O)C(Cc3ccccc3)NC(=O)OC3COC4OCCC34)cc12 (stereo not drawn) [Compound 219] | – | – | – | – | 9 nM | 40 nM | – | – | – | < 0.1 nM | < 0.3 nM | 0.37 nM | 4 nM
CC(C)CN(CC(O)C(Cc1ccccc1)NC(=O)OC1COC2OCCC12)S(=O)(=O)c1ccc2onc(CNC(=O)C(C)C)c2c1 (stereo not drawn) [Compound 220] | – | – | – | – | 12 nM | 60 nM | – | – | – | < 0.1 nM | < 0.3 nM | 0.14 nM | 7 nM
CC(C)CN(CC(O)C(Cc1ccccc1)NC(=O)OC1COC2OCCC12)S(=O)(=O)c1ccc2onc(CNC(=O)c3ccccc3)c2c1 (stereo not drawn) [Compound 221] | – | – | – | – | 14 nM | 16 nM | – | – | – | < 0.1 nM | < 0.3 nM | < 0.1 nM | 7 nM
CCCOC(=O)NCc1noc2ccc(S(=O)(=O)N(CC(C)C)CC(O)C(Cc3ccccc3)NC(=O)OC3COC4OCCC34)cc12 (stereo not drawn) [Compound 222] | – | – | – | – | 12 nM | 45 nM | – | – | – | < 0.1 nM | < 0.3 nM | 0.19 nM | 3 nM
CCS(=O)(=O)NCc1noc2ccc(S(=O)(=O)N(CC(C)C)CC(O)C(Cc3ccccc3)NC(=O)OC3COC4OCCC34)cc12 (stereo not drawn) [Compound 223] | – | – | – | – | 11 nM | 60 nM | – | – | – | < 0.1 nM | < 0.3 nM | 0.26 nM | 9 nM
CC(C)CN(CC(O)C(Cc1ccccc1)NC(=O)OC1COC2OCCC12)S(=O)(=O)c1ccc2onc(CNCCc3ccccn3)c2c1 (stereo not drawn) [Compound 224] | – | – | – | – | 30 nM | 100 nM | – | – | – | < 0.1 nM | < 0.3 nM | 0.22 nM | 15 nM
CCOC(=O)N(CCOC)Cc1noc2ccc(S(=O)(=O)N(CC(C)C)CC(O)C(Cc3ccccc3)NC(=O)OC3COC4OCCC34)cc12 (stereo not drawn) [Compound 225] | – | – | – | – | 27 nM | 80 nM | – | – | – | < 0.1 nM | < 0.3 nM | 0.44 nM | 3.6 nM
CCSCCNCc1noc2ccc(S(=O)(=O)N(CC(C)C)CC(O)C(Cc3ccccc3)NC(=O)OC3COC4OCCC34)cc12 (stereo not drawn) [Compound 226] | – | – | – | – | 16 nM | 38 nM | – | – | – | < 0.1 nM | < 0.3 nM | < 0.1 nM | 5.5 nM
CCS(=O)(=O)N(CCOC)Cc1noc2ccc(S(=O)(=O)N(CC(C)C)CC(O)C(Cc3ccccc3)NC(=O)OC3COC4OCCC34)cc12 (stereo not drawn) [Compound 227] | – | – | – | – | 27 nM | 80 nM | – | – | – | < 0.1 nM | 0.41 nM | 2.6 nM | 3.6 nM
CC(C)CN(CC(O)C(Cc1ccccc1)NC(=O)OC1COC2OCCC12)S(=O)(=O)c1ccc2onc(CNCC(F)(F)C(F)(F)F)c2c1 (stereo not drawn) [Compound 228] | – | – | – | – | 9.5 nM | 26 nM | – | – | – | 0.12 nM | < 0.3 nM | 0.2 nM | 4.5 nM
